{"source": "patent US20230348401A1", "about": "“Inhibitors of Glucose-6-phosphate Dehydrogenase and Uses Thereof” (The Trustees of Princeton University, priority 2020, published 2023)", "key": {"RBCs": {"system": "RBCs", "assay": "NADPH pools in red blood cells", "type": "cell-based, mouse", "procedure": "To isolate red blood cells, mice were euthanized by cervical dislocation followed by collection of approximately 200 µL whole blood via cardiac puncture into tubes containing 7.5 µL heparin (1000USP/mL, H3393, Sigma Aldrich). The cells were incubated on ice for approximately 5 minutes, then centrifuged (5 minutes, 500 rpm, 4° C.) followed by aspiration of the serum and buffy coat layer. Cells were gently resuspended in PBS and then pelleted (5 minutes, 500 rpm, 4° C.) three times. Cells were then resuspended in RPMI media and used immediately for experiments.\nFor suspension cells (including T cells and red blood cells), 2×10^6 cells were seeded in 1 mL of media in 12-well plates and incubated with appropriate media, which included isotope tracers and/or chemical inhibitors and/or cytokines, as described. For all experiments involving small molecule agents, DMSO concentrations were <0.2%. After 2 hours, cell suspensions were transferred to 1.5 mL tubes and pelleted (30 seconds, 6000 rpm, room temperature). Media was removed by aspiration and metabolome extraction was performed by the addition of 75 µL of ice cold solvent (40:40:20 ACN:MeOH:H2O + 0.5%FA). After a 5-minute incubation on ice, acid was neutralized by the addition of NH4HCO3. […]"}, "colony formation": {"system": "colony formation", "assay": "Colony formation", "type": "cell-based", "conditions": "dose-response; rescued by exogenous antioxidants"}, "mouse neutrophils": {"system": "mouse neutrophils", "assay": "Neutrophil oxidative burst assay (mouse)", "type": "cell-based", "conditions": "PMA, 50 µM", "procedure": "Murine neutrophils were isolated from 8-12-week old C56BL/6 mice. Mice were bred and maintained according to the University of Wisconsin Institutional Animal Care and Use Committee (Protocol No. M006219). Mice were euthanized by cervical dislocation, and bone marrow cells were harvested from femur and tibia within 30 minutes. Cell suspensions were passed through a 70-µm cell strainer. Neutrophils were prepared using a negative selection kit (EasySep Mouse Neutrophil Enrichment Kit, Stem Cell Technologies), following the manufacturer’s instructions. Cells were cultured in RPMI 1640 media supplemented with 10% heat-inactivated FBS, 100 U/ml penicillin, 100 µg/ml streptomycin, 5 mM HEPES, and 2 mM EDTA. To stimulate neutrophils, 100 nM phorbol 12-myristate 13-acetate (PMA) (Cayman Chemical) was added to the media; metabolites were extracted after 30 minutes of stimulation.\nSuspended neutrophils were plated in culture wells pre-coated with CELL-TAK™ (Corning), spun at 200 × g for 1 minute with minimal acceleration/deceleration, and then incubated for 1 hour at 37° C. Murine neutrophils were plated at 2×10^5 cells/well in RPMI 1640 media without sodium bicarbonate. […] Oxidative burst was stimulated with PMA (100 nM, Cayman Chemical); oxygen consumption rate was measured using the XF-96e extracellular flux analyzer (Seahorse Bioscience)."}, "T cell lineages": {"system": "T cell lineages", "assay": "NADPH and NADP+ pools across cell types (LC-MS)", "type": "cell-based", "procedure": "For suspension cells (including T cells and red blood cells), 2×10^6 cells were seeded in 1 mL of media in 12-well plates and incubated with appropriate media, which included isotope tracers and/or chemical inhibitors and/or cytokines, as described. For all experiments involving small molecule agents, DMSO concentrations were <0.2%. After 2 hours, cell suspensions were transferred to 1.5 mL tubes and pelleted (30 seconds, 6000 rpm, room temperature). Media was removed by aspiration and metabolome extraction was performed by the addition of 75 µL of ice cold solvent (40:40:20 ACN:MeOH:H2O + 0.5%FA). After a 5-minute incubation on ice, acid was neutralized by the addition of NH4HCO3. After centrifugation (15 minutes, 16000 rpm, 4° C.), the resulting supernatant was transferred to a clean tube, frozen on dry ice and kept at -80° C. until LC-MS analysis.\nMetabolites were analyzed using a quadrupole-orbitrap mass spectrometer (Q Exactive Plus, Thermo Fisher Scientific, Waltham, MA), coupled to hydrophilic interaction chromatography (HILIC) with LC separation on a XBridge BEH Amide column (Waters), or a stand-alone orbitrap (Thermo-Fisher Exactive) coupled to reversed-phase ion-pairing chromatography with LC separation on a HSS-T3 column (Waters). […]"}, "G6PD": {"molecular_target": "G6PD (Homo sapiens, UniProt P11413)", "sequence (P11413 whole entry)": "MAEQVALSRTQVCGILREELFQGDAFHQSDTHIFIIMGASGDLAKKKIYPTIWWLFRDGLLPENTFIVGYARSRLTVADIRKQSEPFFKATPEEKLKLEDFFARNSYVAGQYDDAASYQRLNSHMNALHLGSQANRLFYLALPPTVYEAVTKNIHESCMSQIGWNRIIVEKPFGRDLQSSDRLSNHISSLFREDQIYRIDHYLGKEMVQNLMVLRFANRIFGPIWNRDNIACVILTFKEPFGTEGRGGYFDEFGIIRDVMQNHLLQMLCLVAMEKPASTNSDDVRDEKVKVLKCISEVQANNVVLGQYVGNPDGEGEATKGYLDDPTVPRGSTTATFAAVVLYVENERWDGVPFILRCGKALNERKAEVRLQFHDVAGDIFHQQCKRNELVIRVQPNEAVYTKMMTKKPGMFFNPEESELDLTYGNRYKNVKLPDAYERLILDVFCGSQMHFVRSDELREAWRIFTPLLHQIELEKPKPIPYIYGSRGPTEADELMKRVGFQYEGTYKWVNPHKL", "assay": "Cellular thermal shift assay (CETSA) in HepG2 lysates", "type": "binding", "design": "endogenous in cells", "conditions": "up to 56° C.", "procedure": "Lysates from HepG2 cells at 75% confluence were isolated with 0.5% Triton in TBS (20 mM, Tris pH 7.4, 150 mM NaCl) for 30 min on ice, pre-cleared by centrifugation and used for thermal shift assay as described 49. Briefly, inhibitor or DMSO control was added to lysates at indicated concentration and incubated for 30 min on ice followed by 3 min heating at 47° C., 50° C., 53° C., and 56° C. in a thermal cycler. After heating, tubes were cooled at room temperature for 3 min and insoluble fraction removed by centrifugation at 17,000 g for 20 min. The soluble fraction was separated by SDS-PAGE, transferred to PVDF membrane, and immunoblotted using indicated antibodies at a dilution of 1:2000. Blots were developed by chemiluminescence and imaged using LI-COR C-DiGit Western Blot Scanner. Two independent experiments were performed. Signal intensity of proteins from immunoblots was quantified using Image Studio version 5.2 for C-DiGit Scanner, and bands were normalized to signal intensity of the 47° C. treated samples. Relative signal intensities were plotted as bar graph relative to the DMSO treated control."}, "naïve CD8+ T cells": {"system": "naïve CD8+ T cells", "assay": "T cell activation, proliferation and viability (flow cytometry)", "type": "cell-based, mouse", "procedure": "The functional consequences of oxPPP inhibition were next explored using G6PDi-1 in T cells. To test the effect of G6PDi-1 on activation and proliferation, naïve CD8+ T cells were isolated from spleen and activated in vitro with plate-bound αCD3/αCD28 and IL-2. Activation was evaluated by flow cytometry analysis of surface markers CD69 (levels rapidly rise upon activation) and CD25 (usually peaking at 24-48 hours post-activation), and cell size, which increases over the first 24 hours post-activation. To quantify proliferation, naïve cells were stained with […] (CTV) and dye dilution was measured by flow cytometry at day 4 post-activation.\nTo analyze cell surface markers expression, cells were collected, washed with PBS and stained with the viability dye Live/Dead Aqua. Cells were then washed with staining buffer and stained for surface markers: CD4 (APC-Cy7, clone RM4-5,), CD8a (PerCP-Cy5.5, clone 53-6.7), CD25 (APC, clone PC61), CD44 (PE-Cy7, clone IM7), CD62L (PE, clone MEL-14) CD69 (FITC, clone H1.2F3), for T cells; CD11b (APC, clone M1/70 and F4/80 (FITC, clone BM8) for macrophages.\nTo analyze proliferation, naïve CD8 T cells were stained with CTV dye and either maintained in a naïve state with IL7 or stimulated with αCD3/αCD28 + recombinant IL-2 in the presence of increasing concentrations of G6PDi-1. Cells were refed at days 2 and 3 post-stimulation, and proliferation was measured at day 4 post-activation. Cells were collected, washed with staining buffer and stained with the viability dye propidium iodide."}}, "data": [{"smiles": "N#Cc1cc(Nc2ncc3c(n2)CCCCC3=O)cs1", "note": "[Compound 2, 4-([5-oxo-6H,7H,8H,9H-cyclohepta[d]pyrimidin-2-yl]amino)thiophene-2-carbonitrile]", "values": [{"measurement": "sensitivity of NADPH pools", "setting": "RBCs", "result": "fairly sensitive"}, {"measurement": "colony formation", "setting": "colony formation", "result": "dose-dependent decrease"}, {"measurement": "oxidative burst (oxygen consumption rate)", "setting": "mouse neutrophils", "result": "decreased oxidative burst"}, {"measurement": "decrease in NADPH", "setting": "T cell lineages", "result": "> 10", "unit": "fold"}, {"measurement": "increase in NADP+", "setting": "T cell lineages", "result": "5-10 fold"}, {"measurement": "thermal stabilization of G6PD", "setting": "G6PD", "result": "significant thermal stabilization of G6PD"}, {"measurement": "proliferation of CD4+ T cells", "setting": "naïve CD8+ T cells; CD4+ T cells", "result": "minimal effect"}, {"measurement": "viability", "setting": "naïve CD8+ T cells; CD8+ T cells", "result": "minimal effect"}, {"measurement": "activation-dependent proliferation", "setting": "naïve CD8+ T cells; CD8+ T cells, day 4 post-activation", "result": "minimal effect"}, {"measurement": "upregulation of activation markers and activation-dependent increase in cell size", "setting": "naïve CD8+ T cells; CD8+ T cells, αCD3/αCD28 and IL-2", "result": "did not alter"}]}]}
